Data on one compound can be found in article PMC11582173, “Synthesis, cytotoxicity, anti-inflammatory, anti-metastatic and anti-oxidant activities of novel chalcones incorporating 2-phenoxy-N-arylacetamide and thiophene moieties: induction of apoptosis in MCF7 and HEP2 cells” (Naunyn-Schmiedeberg's Archives of Pharmacology, 2024).

The test system of one assay is Glutathione (GSH). Kind of assay: ELISA, GSH concentration. The class given is cell-based, human. Here is the method: (§1) The concentrations of matrix metalloproteinase-2 (MMP2), matrix metalloproteinase-9 (MMP9), Bcl2, BAX, P53, Malondialdehyde (MDA), Glutathione (GSH), caspase 8, caspase 9 and IL-6 were measured quantitatively in 5c treated MCF7 and HEP2 cells using ELISA (Enzyme-Linked Immunosorbent Assay) (Table 4). Gelatinases are a collective word for MMP-2 and MMP-9, where MMP-2 is gelatinase-A and MMP-9 is gelatinase-B. Solid tumor invasion, metastasis, and angiogenesis have long been linked to gelatinases (Das et al. [2021]). […] Bcl2 is a crucial protein that targets apoptosis inhibition. It is regarded as a predictive biomarker or therapeutic target in the diagnosis of cancer due to its broad expression in a variety of cancers (Porter et al. [2009]). […] The pro-apoptotic protein BAX permeabilizes the mitochondrial outer membrane by changing from a cytosolic monomer to a hazardous oligomer triggering the apoptosis process (Fulda and Debatin [2006]). […] P53 transcription factor performs an essential tumor suppressor role by coordinating a wide range of physiological responses, including DNA repair, cell cycle arrest, cellular senescence, cell death, cell differentiation, and metabolism (Liebl and Hofmann [2021]). It was activated in MCF7 and HEP2-treated cells with values (4.28 and 3.109 ng/mL), respectively, compared to their controls (3.44 and 2.06 ng/mL). […]
(In general: An ELISA detects its analyte on a solid surface through an enzyme-linked reagent.)

A further assay concerns IL-6. Kind of assay: ELISA, IL-6 concentration. The class given is cell-based, human. Here is the method: as §1
Assay [1] concerns human laryngeal carcinoma (HEP2) cells. Kind of assay: SRB cytotoxic assay, HEP2. The class given is cell-based. Particulars: HEp-2, 48 h. Here is the method: All the prepared compounds were screened at a concentration of 100 µg/mL against six different human cell lines: human laryngeal carcinoma (HEP2), human colorectal carcinoma (HCT116), human breast carcinoma (MCF7), human Lung carcinoma (A549), human liver carcinoma (HEPG2), and normal African Green monkey kidney cell line (VERO). Doxorubicin was used as a positive control for comparison purposes.
The human laryngeal carcinoma (HEP2), colorectal carcinoma (HCT116), breast carcinoma (MCF7), Lung carcinoma (A549), liver carcinoma (HEPG2), and normal African Green monkey kidney cell line (VERO) were purchased from American Tissue Culture Collection (Rockville, MD, USA). The cells were treated for 48 h with a single dose (100 µg/mL) of all the tested chalcones. […] In brief, the cells were seeded in a 96-well microtiter plate at a concentration of 5×10^3 cells/well in 100 µL fresh RPMI-1640 medium and left to attach to the plates for 24 h. Then, cells were incubated with 100 μL of different concentrations (50, 25, 12.5, 6.25, and 0.0 µg/mL) of 5c in triplicate at 37 °C for 48 h. After that, the cells were fixed with 10 µL cold 100% Trichloroacetic acid (TCA) for 1h at 4 °C. The wells were then washed 1 time with distilled water using (automatic Tecan washer, Germany) and stained for 30 min at room temperature with 50 µL 0.4% SRB dissolved in 1% acetic acid. The plates were air-dried and the dye was solubilized with 100 µl/well of 1M tris base (pH 10.5) for 5 min. The optical density (O.D.) of each well was measured spectrophotometrically at 570 nm with an ELISA microplate reader (Sunrise Tecan reader, Germany) with automatic shaking for 30 seconds before reading. The mean background absorbance was subtracted automatically and mean values for each drug concentration were calculated. The percentage of cell survival was calculated as follows: Survival fraction= O.D. (treated cells)/ O.D. (control cells) (Bhat et al. [2023]).
In general terms: Sulforhodamine B stains cellular protein and so reports cell mass.

Converted amounts (≈) assume the structure as drawn. “And” between values parts separate entries of the source, which are not always exact repeats. Identical values can stand only once.

As to `COc1ccc(NC(=O)COc2ccc(C=CC(=O)c3cccs3)cc2)cc1` [Compound 5c, N-(4-Methoxyphenyl)-2-(4-(3-oxo-3-(thiophen-2-yl)prop-1-en-1-yl)phenoxy)acetamide], the GSH concentration in the assay on Glutathione (GSH) (5c treated HEP2 cells, untreated 0.668±0.010) was 0.821 ng/mL and 0.821 ± 0.009 ng/mL; in the assay on Glutathione (GSH) (5c treated MCF7 cells, untreated 0.737±0.009), 0.939 ng/mL and 0.939 ± 0.022 ng/mL. The IL-6 concentration is 54.27 pg/mL and 54.27 ± 5.509 pg/mL in the assay with IL-6 (5c treated HEP2 cells, untreated 85.24±1.16); 74.68 pg/mL and 74.68 ± 0.979 pg/mL in the assay with IL-6 (5c treated MCF7 cells, untreated 100.47±0.439). Besides, the IC50 (commonly the concentration that gives 50% inhibition) in assay [1] was found to be 12 µg/mL (≈ 30.5 µM). Moreover, in assay [1] (single dose 100 µg/mL, read-out: %Inhibition at100 µg/mL HEP2), the inhibition at 100 µg/mL was over 75%.
